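Cultured in 96-well plates, cells were exposed to test compound for 48 hours across five concentrations. GI50 marks 50% less growth.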 Calls of active or inactive are those of the source. Cut-off read from the data, not from the text of the source: active = GI50 up to about 1.1 µM and inactive = higher.
Assays:
Experiment in all cases: growth of human tumour cells (NCI), 48 h
786-0 = system: 786-0
A549 = system: A549
CAKI-1 = system: CAKI-1
CCRF-CEM = system: CCRF-CEM
COLO 205 = system: COLO 205
DU-145 = system: DU-145
EKVX = system: EKVX
HCC 2998 = system: HCC 2998
HCT-116 = system: HCT-116
HCT-15 = system: HCT-15
HL-60 = system: HL-60
HOP-62 = system: HOP-62
HOP-92 = system: HOP-92
HT-29 = system: HT-29
Hs-578T = system: Hs-578T
IGROV-1 = system: IGROV-1
K562 = system: K562
KM12 = system: KM12
LOX IMVI = system: LOX IMVI
M14 = system: M14
MCF7 = system: MCF7
MDA-MB-231 = system: MDA-MB-231
MDA-MB-435 = system: MDA-MB-435
MDA-N = system: MDA-N
MOLT-4 = system: MOLT-4
Malme-3M = system: Malme-3M
NCI-H226 = system: NCI-H226
NCI-H23 = system: NCI-H23
NCI-H460 = system: NCI-H460
NCI-H522 = system: NCI-H522
NCI/ADR-RES = system: NCI/ADR-RES
OVCAR-3 = system: OVCAR-3
OVCAR-4 = system: OVCAR-4
OVCAR-5 = system: OVCAR-5
OVCAR-8 = system: OVCAR-8
PC-3 = system: PC-3
RPMI-8226 = system: RPMI-8226
RXF 393 = system: RXF 393
SF-268 = system: SF-268
SF-295 = system: SF-295
SF-539 = system: SF-539
SK-MEL-28 = system: SK-MEL-28
SK-MEL-2 = system: SK-MEL-2
SK-MEL-5 = system: SK-MEL-5
SK-OV-3 = system: SK-OV-3
SN12C = system: SN12C
SNB-19 = system: SNB-19
SNB-75 = system: SNB-75
SR = system: SR
SW-620 = system: SW-620
TK-10 = system: TK-10
U-251 = system: U-251
UACC-62 = system: UACC-62
UO-31 = system: UO-31
A498 = system: A498
BT-549 = system: BT-549
UACC-257 = system: UACC-257
ACHN = system: ACHN
T47D = system: T47D

For `COC(=O)Cc1cc2c(cc1C(=O)c1ccc(N)cc1)OCO2`, the GI50 (786-0) was 5.58 µM (inactive), the GI50 (A549) was 3.62 µM (inactive) and the GI50 (CAKI-1) was 3.48 µM (inactive). For the same compound, the GI50 (CCRF-CEM) was 1.48 µM (inactive), the GI50 (COLO 205) was 1.21 µM (inactive) and the GI50 (DU-145) was 4.11 µM (inactive). The GI50 (EKVX) was 4.03 µM (inactive), the GI50 (HCC 2998) was 0.78 µM (active) and the GI50 (HCT-116) was 1.77 µM (inactive). For the same compound, the GI50 (HCT-15) was 1.1 µM, the GI50 (HL-60) was 2.36 µM (inactive) and the GI50 (HOP-62) was 3.84 µM (inactive). The GI50 (HOP-92) was 2.37 µM (inactive), the GI50 (HT-29) was 1.09 µM (active) and the GI50 (Hs-578T) was 2.26 µM (inactive). The GI50 (IGROV-1) was 0.625 µM (active), the GI50 (K562) was 0.553 µM (active) and the GI50 (KM12) was 0.488 µM (active). For the same compound, the GI50 (LOX IMVI) was 5.45 µM (inactive), the GI50 (M14) was 1.64 µM (inactive) and the GI50 (MCF7) was 0.902 µM (active). The GI50 (MDA-MB-231) was 3.42 µM (inactive), the GI50 (MDA-MB-435) was 0.169 µM (active) and the GI50 (MDA-N) was 0.19 µM (active). The GI50 (MOLT-4) was 1.63 µM (inactive), the GI50 (Malme-3M) was > 100 µM (inactive) and the GI50 (NCI-H226) was 22.2 µM (inactive). The GI50 (NCI-H23) was 5.68 µM (inactive), the GI50 (NCI-H460) was 12.2 µM (inactive) and the GI50 (NCI-H522) was 0.228 µM (active). The GI50 (NCI/ADR-RES) was 0.667 µM (active), the GI50 (OVCAR-3) was 0.755 µM (active) and the GI50 (OVCAR-4) was 11.2 µM (inactive). The GI50 (OVCAR-5) was 6.46 µM (inactive), the GI50 (OVCAR-8) was 3.56 µM (inactive) and the GI50 (PC-3) was 1.73 µM (inactive). The GI50 (RPMI-8226) was 1.5 µM (inactive), the GI50 (RXF 393) was 4.34 µM (inactive) and the GI50 (SF-268) was 2.62 µM (inactive). For the same compound, the GI50 (SF-295) was 1.12 µM (active), the GI50 (SF-539) was 2.9 µM (inactive) and the GI50 (SK-MEL-28) was 3.36 µM (inactive). The GI50 (SK-MEL-2) was 0.964 µM (active), the GI50 (SK-MEL-5) was 0.435 µM (active) and the GI50 (SK-OV-3) was 2.94 µM (inactive). For the same compound, the GI50 (SN12C) was 5.96 µM (inactive), the GI50 (SNB-19) was 8.83 µM (inactive) and the GI50 (SNB-75) was 1.21 µM (inactive). The GI50 (SR) was 0.117 µM (active), the GI50 (SW-620) was 1.19 µM (inactive) and the GI50 (TK-10) was > 19.7 µM (inactive). For the same compound, the GI50 (U-251) was 3.05 µM (inactive), the GI50 (UACC-62) was 1.11 µM (active) and the GI50 (UO-31) was 13.6 µM (inactive).

`Cc1c(-c2c(C)c3ccccc3n2S(=O)(=O)c2ccccc2)n(S(=O)(=O)c2ccccc2)c2ccccc12` was tested, and the GI50 (786-0) was 0.019 µM (active), the GI50 (A498) was > 100 µM (inactive) and the GI50 (BT-549) was > 100 µM (inactive). For the same compound, the GI50 (CAKI-1) was 0.336 µM (active), the GI50 (CCRF-CEM) was > 100 µM (inactive) and the GI50 (EKVX) was > 100 µM (inactive). The GI50 (HL-60) was > 100 µM (inactive), the GI50 (HOP-92) was > 100 µM (inactive) and the GI50 (Hs-578T) was > 100 µM (inactive). For the same compound, the GI50 (K562) was > 100 µM (inactive), the GI50 (M14) was > 22.2 µM (inactive) and the GI50 (MDA-MB-231) was > 56.4 µM (inactive). For the same compound, the GI50 (MDA-MB-435) was > 100 µM (inactive), the GI50 (MOLT-4) was > 100 µM (inactive) and the GI50 (Malme-3M) was 0.0299 µM (active). The GI50 (NCI-H226) was > 39.9 µM (inactive), the GI50 (NCI-H23) was > 72.8 µM (inactive) and the GI50 (NCI-H460) was 0.0407 µM (active). For the same compound, the GI50 (NCI-H522) was > 100 µM (inactive), the GI50 (NCI/ADR-RES) was > 80 µM (inactive) and the GI50 (OVCAR-3) was 5.62 µM (inactive). For the same compound, the GI50 (OVCAR-5) was > 51.6 µM (inactive), the GI50 (PC-3) was > 37.1 µM (inactive) and the GI50 (RPMI-8226) was > 100 µM (inactive). For the same compound, the GI50 (SF-268) was > 100 µM (inactive), the GI50 (SF-295) was > 100 µM (inactive) and the GI50 (SF-539) was 0.0371 µM (active). For the same compound, the GI50 (SK-MEL-28) was > 100 µM (inactive), the GI50 (SK-MEL-2) was > 37.5 µM (inactive) and the GI50 (SK-OV-3) was > 82.6 µM (inactive). The GI50 (SNB-19) was > 93.5 µM (inactive), the GI50 (SNB-75) was > 31.6 µM (inactive) and the GI50 (TK-10) was > 100 µM (inactive). The GI50 (UACC-257) was > 100 µM (inactive), the GI50 (UACC-62) was > 29.1 µM (inactive) and the GI50 (UO-31) was > 100 µM (inactive).

For `CC(=NNC(=S)Nc1ccc(C)cc1)c1cccc(C(C)=NNC(=S)Nc2ccc(C)cc2)n1`, the GI50 (786-0) was 5.9 µM (inactive), the GI50 (A498) was 20.9 µM (inactive) and the GI50 (A549) was 12.9 µM (inactive). For the same compound, the GI50 (ACHN) was 5.66 µM (inactive), the GI50 (CAKI-1) was 4.75 µM (inactive) and the GI50 (CCRF-CEM) was 7.5 µM (inactive). The GI50 (COLO 205) was 3.83 µM (inactive), the GI50 (DU-145) was > 100 µM (inactive) and the GI50 (EKVX) was 21.5 µM (inactive). For the same compound, the GI50 (HCC 2998) was 35.6 µM (inactive), the GI50 (HCT-116) was 7.33 µM (inactive) and the GI50 (HCT-15) was 6.82 µM. For the same compound, the GI50 (HL-60) was 3.97 µM (inactive), the GI50 (HOP-62) was 9.82 µM (inactive) and the GI50 (HOP-92) was 10 µM (inactive). The GI50 (HT-29) was 11.9 µM (inactive), the GI50 (Hs-578T) was 41.1 µM (inactive) and the GI50 (IGROV-1) was 12.1 µM (inactive). For the same compound, the GI50 (K562) was 12.2 µM (inactive), the GI50 (KM12) was 13.8 µM (inactive) and the GI50 (LOX IMVI) was 9.91 µM (inactive). The GI50 (M14) was 8.89 µM (inactive), the GI50 (MCF7) was > 100 µM (inactive) and the GI50 (MDA-MB-231) was 24.2 µM (inactive). The GI50 (MDA-MB-435) was 13.6 µM (inactive), the GI50 (MDA-N) was 19.9 µM (inactive) and the GI50 (MOLT-4) was 4.18 µM (inactive). For the same compound, the GI50 (Malme-3M) was 2.06 µM (inactive), the GI50 (NCI-H226) was 13.7 µM (inactive) and the GI50 (NCI-H23) was 22 µM (inactive). The GI50 (NCI-H460) was 6.47 µM (inactive), the GI50 (NCI-H522) was 22.3 µM (inactive) and the GI50 (NCI/ADR-RES) was 5 µM (inactive). The GI50 (OVCAR-3) was 1.5 µM (inactive), the GI50 (OVCAR-4) was 10.9 µM (inactive) and the GI50 (OVCAR-5) was 60.5 µM (inactive). For the same compound, the GI50 (OVCAR-8) was 6.44 µM (inactive), the GI50 (PC-3) was 17.7 µM (inactive) and the GI50 (RPMI-8226) was 19.2 µM (inactive). For the same compound, the GI50 (RXF 393) was 14.4 µM (inactive), the GI50 (SF-268) was > 100 µM (inactive) and the GI50 (SF-295) was 11 µM (inactive). For the same compound, the GI50 (SF-539) was 7.01 µM (inactive), the GI50 (SK-MEL-28) was > 100 µM (inactive) and the GI50 (SK-MEL-2) was 68.7 µM (inactive). The GI50 (SK-MEL-5) was 6.44 µM (inactive), the GI50 (SK-OV-3) was 47.3 µM (inactive) and the GI50 (SN12C) was 21.5 µM (inactive). The GI50 (SNB-19) was 36.3 µM (inactive), the GI50 (SNB-75) was 4.69 µM (inactive) and the GI50 (SR) was 4.02 µM (inactive). For the same compound, the GI50 (SW-620) was 10.9 µM (inactive), the GI50 (T47D) was 29.6 µM (inactive) and the GI50 (TK-10) was 60.1 µM (inactive). For the same compound, the GI50 (U-251) was 31.3 µM (inactive), the GI50 (UACC-257) was 13.9 µM (inactive) and the GI50 (UACC-62) was 7.14 µM (inactive). For the same compound, the GI50 (UO-31) was 6.68 µM (inactive).

Reference: ChEMBL document CHEMBL1201862, “PubChem BioAssay data set” (2004)
